Results as given in patent EP0559845B1, “Use of compounds in preventing endotoxin shock” (priority 1991, dated 1992).

Key:
[1] = tested on: GTPase activity in membranes isolated from a macrophage (RAW 264.7) cell line; experiment: GTPase assay: basal or agonist-stimulated GTPase activity in macrophage membranes; format: biochemical; settings: no LPS
Excerpt: We sought to directly evaluate the influence of LPS on possible G-protein function by examining agonist-enhanced GTPase activity, which is a hallmark of G-protein action. Moreover, because macrophages are one of the key cell types in the release of toxic mediators following an LPS challenge, we first assessed the capacity of LPS to influence GTPase activity in membranes isolated from RAW 264.7 cells, which is a highly LPS-responsive macrophage cell line. In these studies, GTPase activity was measured using a standard assay. The activity was determined using 2 µM γ-^32P-GTP in the presence of 0.1 mM ATP and 0.2 mM of the non-hydrolyzable ATP analog, AMPPNP, in order to minimize nonspecific nucleotidase activity in the membrane preparations. In the preferred practice of the present invention, the ability of a candidate compound to inhibit LPS-induced GTPase is assessed by measuring the release of ^32Pi from γ-^32P-GTP.
We first determined the optimal LPS concentration for GTPase stimulation. In all experiments, the LPS dose response curve was quite steep, and with the highest activity occurring around 200-300 µg LPS/ml.
Under these conditions, GTPase activation was evident at 100 µg LPS/ml (roughly 6 µM assuming an average MW ∼ 17,000 kDa), and the maximal effect was seen by 300 µg/ml LPS. (2) To show adenosine mucleotide synergism with LPS-stimulated GTPase activity, either 10µM ATP or 30µM ADP replace the 0.1 mM ATP and 0.2 mM AMPPNP of the standard assay described by Cassel et al. and Neer et al.
In the preferred assay, a candidate compound (.001 - 1000 µM) is dissolved or suspended in 100µl of a reaction buffer containing 20mM HEPES (pH 7.4), 0.01mM ATP or ADP, membranes isolated from RAW 264.7 cells, 2µM γ-^32P-GTP (3-9 X 10cpm/pmol), 5mM MgCl2, 18µM LPS (based on an estimated MW of 17,000 kDa for E. coli 0111:B4 endotoxin), and 250 mM ammonium sulfate. The reaction is initiated by the addition of the γ-^32P-GTP and the mixture incubated at 30-37°C for 15 to 30 minutes. The reaction is terminated by the addition of 500µl of 5% trichloroacetic acid and 500µl of 0.1gm/ml acid-activated charcoal in 5% trichloroacetic acid. The samples are centrifuged at 14,000xg for 10 minutes, and a 550µl aliquot of the supernatant is removed for scintillation counting. The supernatant will contain the released ^32Pi. The extent of GTPase inhibition is measured by the decrease in the amount of ^32Pi released from γ-^32P-GTP. Appropriate controls include mixtures with one of the following omitted: (i) test compound, (ii) endotoxin, and (iii) ATP, ADP or AMPPNP.
The macrophage-like cell line RAW 264.7 is cultured as described using RPMI 1640 medium supplemented with 10% fetal calf serum (FCS) containing < 0.1 ng/ml LPS. The membranes are resuspended in 20 mM HEPES (pH 7.4), 1 mM dithiothreitol, 1 mM EDTA and 10 µg leupeptin/ml. Aliquots are stored at -70°C until assayed.
To assess whether the LPS/ATP-enhanced GTPase is a "low Km" form, which would be expected for a variety of large and small MW G-proteins, as well as for various GAP and ARF-like proteins, as opposed to a "high Km" form, such as a phosphatase, we assayed the GTPase activity using 0.2 and 50 µM GTP essentially as described previously. […] The LPS and ATP stimulated a low Km GTPase activity by ∼30% and 70%, respectively, when added individually. This stimulation of low Km activity was slightly greater than that estimated using the standard assay conditions. […] The LPS stimulation of GTPase activity is enhanced by adenine nucleotides.

[2] = tested on: FCS-enhanced GTPase activity; experiment: Inhibition of FCS-enhanced (non-LPS-stimulated) GTPase activity in macrophage membranes; format: biochemical; settings: 3 mg/ml lipid X; 10% FCS
Description: With respect to non-LPS-stimulated GTPase activity in this macrophage system, we observed that 10% FCS (<0.1 ng endotoxin/ml serum by the Limulus amebocyte lysate method) induced a large degree of GTPase activation, whereas 3 mg/ml lipid X inhibited the FCS-enhanced GTPase activity by ∼ 50%.

C57BL/10 mice = experiment: Toxicity of lipid X in mice; format: in vivo
Description: Eight week old mice (strain C57BL/10) were allowed to rest for at least 7 days following their arrival and were sexually segregated and housed at 5 per cage with food and water ad libitum. Intravenous injection of a GTPase inhibiting compound (lipid X dissolved in saline as described above) and/or lipopolysaccharide was achieved by the retroorbital sinus route using a 27 gauge needle. No more than 0.1 ml of fluid was injected at a time. Just prior to injection, the mice were lightly anesthetized with ether. Following the injection, mice were observed every 0.5-6 hours and the time of death was recorded. In a few experiments, mice were injected by the intraperitoneal route with solutions of lipid X and/or lipopolysaccharide similar to those described above.
To test for the toxicity of lipid X in mice, C57BL/10 mice were challenged with 750, 2000 or 5000 µg of lipid X intraperitoneally (12 mice) or with 750, 1500 or 3000 µg intravenously (7 mice). […] Consequently, lipid X appeared to be nontoxic in mice, as in sheep.

sheep = settings: 40-1000 µg/kg; reported in the literature; cited from earlier work

## CCCCCCCCCCC[C@@H](O)CC(=O)N[C@H]1[C@@H](OP(=O)(O)O)O[C@H](CO)[C@@H](O)[C@@H]1OC(=O)C[C@H](O)CCCCCCCCCCC [lipid X]
[1]
  effect on basal GTPase activity: slightly reducing basal activity
[2]
  inhibition of FCS-enhanced GTPase activity: ~50%
C57BL/10 mice; 750, 1500 or 3000 µg intravenously (7 mice)
  survival after lipid X alone: All these mice lived
C57BL/10 mice; 750, 2000 or 5000 µg intraperitoneally (12 mice)
  survival after lipid X alone: All these mice lived
sheep
  illness after lipid X by itself: does not create marked illness or fever
